Data: patent US11945807B2, “Splicing modulator antibody-drug conjugates and methods of use” (EISAI R&D MANAGEMENT CO., LTD., priority 2018, dated 2024)
Like-named read-outs stand apart in the source and are kept apart here.

Legend:
[1] = system: N87 cells; assay: Cell viability CellTiter-Glo, N87; type: cell-based, human; conditions: unconjugated payload of the ADC; for GI50: Homo sapiens
Method: (§1) HCC1954 (American Type Culture Collection (ATCC)) breast ductal carcinoma cells were plated at 2000 cells/well in flat bottom 96-well tissue culture plates (Corning) in a total volume of 90 μL tissue culture medium supplemented with 10% fetal bovine serum (ThermoFisher Scientific). Cells were treated with a 3-fold serial dilution of compound from 200 nM to 0.03 nM. Each concentration was tested in triplicate. At the time of treatment, a plate of untreated cells was evaluated using CellTiter-Glo®2.0 Luminescent Cell Viability Assay according to the manufacturers recommendations (Promega; #G9241). CellTiter-Glo® 2.0 reagent was added to the medium, incubated, and assayed on an EnVision Multilabel Reader (PerkinElmer). Values represent time zero (T0). […] Percentage growth inhibition was calculated as: [(T144−T0)/(C−T0)]×100 for concentrations for which T144>/=T0 or [(T144−T0)/T0]×100 for concentrations for which T144<T0. The dose response curve plots were generated using Prism 7 (Graphpad) and fit using nonlinear regression analysis and the log(inhibitor) versus response-variable slope (four parameters).
(§2) HCC1954 (ATCC), 2000 cells/well), N87 (ATCC, 4000 cells/well), SKBR3 (ATCC, 3000 cells/well), and MCF7 (ATCC, 1500 cells/well) cell lines were used.

[2] = system: MCF7 cells; assay: Cell viability CellTiter-Glo, MCF7 (HER2-negative); type: cell-based; conditions: Homo sapiens, unconjugated payload of the ADC
Method: as §1, §2

[3] = system: THP1.1; assay: Payload cell potency and lethality CTGlo 72 h, THP1.1; type: cell-based
[4] = Caco-2 permeability of ADC payload; type: in vitro ADME; conditions: human; for Papp B→A at 2 h, 10 NM: basolateral to apical, read-out: Permeability Mean Caco-2 B-A Perm (10e−G cm/s)
Method: (§3) Integrity of cell monolayer was confirmed by TEER (transepithelial electrical resistance) and Lucifer yellow. Payloads were spiked in duplicate at 10 NM, separately, on both sides of the cell monolayer. Permeability rates from the apical to basolateral (A-B) direction and the basolateral to apical (B-A) direction were determined by sampling aliquots from both chambers immediately after treatment (t=0) and following incubation for 2 hours. Samples were protein precipitated with organic solvent containing internal standard and analyzed by LC-MS/MS (SCIEX; API 5500). The area ratio responses of payload/internal standard over time in both directions were used to generate permeability (cm/sec) values.

[5] = system: Caco-2 cells; assay: Caco-2 permeability of ADC payload; type: in vitro ADME; conditions: for Perm. Mean Caco 2 A-B Perm (10e−6 cm/s) / Perm. Mean Caco 2 B-A Perm (10e−6 cm/s): corresponding free payload
Method: as §3

[6] = Chemical stability of ADC payload, pH 5.5 buffer; type: physicochemical; conditions: for half-life at 20 μM: McIlvaine (citrate-phosphate) buffer, unconjugated payload, Citrate-Phosphate buffer pH 5.5, 37° C., read-out: Stability Mean Stability t1/2 pH5.5 (converted); for pH 5.5 Stability (t1/2, 37 C.): pH 5.5, 37 C., corresponding payload
Text: (Eppendorf ThermoMixer). […] Time 0 was set to 100.

[7] = system: MOLP8 cells; assay: Cell viability CellTiter-Glo, MOLP8 (CD138-expressing); type: cell-based; conditions: for GI50: Homo sapiens, read-out: Payload GI50
Method: as §1
(§4) Anti-CD138 ADCs were tested in the CD138-expressing MOLP8 multiple myeloma cell line. Similarly, anti-EPHA2 ADCs were tested in the EPHA2-expressing PC3 prostate cancer cell line.

[8] = system: PC3 cells; assay: Cell viability CellTiter-Glo, PC3 (EPHA2-expressing); type: cell-based; conditions: for GI50: Homo sapiens, PC-3, free payload of the ADC
Method: as §1, §4

[9] = system: NCIH1650.1; assay: Payload cellular potency CTGlo-ATS 72 h, NCIH1650.1; type: cell-based; conditions: cell line #1, 72 h, corresponding free payload; for GI50: read-out: CTGlo-ATS GMean GI50 (nM) 72 h NCIH1650.1
[10] = system: NCIH1568.1; assay: Payload cellular potency CTGlo-ATS 72 h, NCIH1568.1; type: cell-based; conditions: cell line #2, 72 h, corresponding free payload; for GI50: read-out: CTGlo-ATS GMean GI50 (nM) 72 h NCIH1568.1
[11] = system: HCC1954 cells; assay: Cell viability CellTiter-Glo, HCC1954; conditions: for GI50: Homo sapiens, HCC1954, read-out: Payload GI50 (nM)
[12] = target: T1, SF3b complex (Homo sapiens, UniProt O75533+Q7RTV0); assay: SF3B1 binding / scintillation proximity assay (SPA)
T1 construct: The beads were suspended and added to the prepared nuclear extracts; endogenous in cells; host or cells: nuclear extracts
Method: A scintillation proximity assay was performed to measure the binding affinity of compounds (“payloads”) to the SF3b complex. Batch immobilization of anti-SF3B1 antibody (MBL) to anti-mouse PVT SPA scintillation beads (PerkinElmer) was prepared as follows: for every 2.5 mg of nuclear extracts, 5 μg of anti-SF3B1 antibody and 1.5 mg of beads were mixed in 150 μL PBS. The antibody-bead mixture was incubated for 30 min at RT and centrifuged at 18,000 g for 5 min. 150 μL PBS was used to resuspend every 1.5 mg antibody-bead mixture. The beads were suspended and added to the prepared nuclear extracts. The slurry was incubated for 2 hours at 4° C. with gentle mixing. The beads were then collected by centrifuging at 18,000 g for 5 min, and washed twice with PBS+0.1% Triton X-100. After a final centrifugation step, every 1.5 mg of beads was suspended with 150 μL of PBS. […] The mixture was incubated for 30 min, and luminescence signals were read using a MicroBeta2 Plate Counter (PerkinElmer). Prism 7 (Graphpad) was used for non-linear regression curve fitting of the data.

[13] = read-out: CTGlo-ATS GMean GI50 (nM) 72 h THP1.1, cell line #3, 72 h, corresponding free payload
[14] = Caco-2, A-B, corresponding payload (Table 26), read-out: Permeability Caco-2 A-B (10e−6 cm/s)
[15] = Caco-2, unconjugated payload, apical to basolateral, 2 hours, read-out: Permeability Mean Caco-2 A-B Perm (10e−6 cm/s)
[16] = Caco-2, unconjugated payload, 2 hours
[17] = MOLP-8, unconjugated payload of the ADC in the row
[18] = unconjugated payload, payload cell potency and lethality
[19] = unconjugated payload of the ADC
[20] = unconjugated payload of the ADC, HCC1954 cells

Row | Compound | GI50 [1] | Payload Rmin (%) [1] | GI50 [2] | CTGlo-AT S Mean Min-Response % 72 h THP1.1 ([3]; unconjugated payload) | Papp A→B at 2 h, 10 NM [4, 14] | Papp A→B at 2 h, 10 NM [4, 15] | Papp B→A at 2 h, 10 NM [4, 16] | half-life at 20 μM [6] | pH 5.5 Stability (t1/2, 37 C.) [6] | GI50 [7, 17] | GI50 [8] | Payload Rmin (%) ([8]; free payload of the ADC) | GI50 [11] | GI50 [3, 18] | other results
1 | CC[C@H](O)[C@@H](C)C1OC1C[C@@](C)(O)/C=C/C=C(\C)[C@H]1OC(=O)C[C@H](O)CC[C@@](C)(OC(C)=O)[C@@H](OC(=O)N2CCNCC2)/C=C/[C@@H]1C (stereo in doubt) [D4, (2S,3S,6S,7R,10R,E)-7-acetoxy-10-hydroxy-2-((R,2E,4E)-6-hydroxy-7-((2S,3S)-3-((2R,3S)-3-hydroxypentan-2-yl)oxiran-2-yl)-6-methylhepta-2,4-dien-2-yl)-3,7-dimethyl-12-oxooxacyclododec-4-en-6-yl piperazine-1-carboxylate] | 3.24 nM | −81.775% | 11.4 nM | −99.957% | 0.1 ×10⁻⁶ cm/s | 0.1 ×10⁻⁶ cm/s | 1.79 ×10⁻⁶ cm/s | 106 h | 4.5 | 1.15 nM | 11.1 nM | −55.97% | 1.7 nM | – | GI50 [3, 13]: 10.9 nM; Perm. Mean Caco 2 A-B Perm (10e−6 cm/s) [5]: 0.1 10e−6 cm/s; Perm. Mean Caco 2 B-A Perm (10e−6 cm/s) [5]: 1.79 10e−6 cm/s; CTGlo-ATS GMean LD50 (nM) 72 h NCIH1650.1 [9]: 1960.398 nM; GI50 [9]: 11.9 nM; CTGlo-ATS GMean LD50 (nM) 72 h NCIH1568.1 [10]: 45.485 nM; GI50 [10]: 6.37 nM
2 | CC[C@H](O)[C@@H](C)[C@H]1O[C@@H]1C[C@@](C)(O)/C=C/C=C(\C)[C@H]1OC(=O)C[C@H](O)CC[C@@](C)(OC(=O)N2CCNCC2)[C@@H](OC(C)=O)/C=C/[C@@H]1C [D8, (2S,3S,6S,7R,10R,E)-6-acetoxy-10-hydroxy-2-((R,2E,4E)-6-hydroxy-7-((2R,3R)-3-((2R,3S)-3-hydroxypentan-2-yl)oxiran-2-yl)-6-methylhepta-2,4-dien-2-yl)-3,7-dimethyl-12-oxooxacyclododec-4-en-7-yl piperazine-1-carboxylate] | 8.84 nM | −34.052% | 29.6 nM | −99.92% | – | 0.128 ×10⁻⁶ cm/s | 2.03 ×10⁻⁶ cm/s | 84.6 h | – | – | 16.6 nM | −68.37% | 2.64 nM | – | GI50 [3, 13]: 8.74 nM; Perm. Mean Caco 2 A-B Perm (10e−6 cm/s) [5]: 0.128 10e−6 cm/s; Perm. Mean Caco 2 B-A Perm (10e−6 cm/s) [5]: 2.027 10e−6 cm/s; CTGlo-ATS GMean LD50 (nM) 72 h NCIH1650.1 [9]: >10000.00 nM; GI50 [9]: 19.1 nM; CTGlo-ATS GMean LD50 (nM) 72 h NCIH1568.1 [10]: 68.125 nM; GI50 [10]: 6.57 nM
3 | CC[C@H](O)[C@@H](C)[C@H]1O[C@@H]1C[C@H](C)/C=C/C=C(\C)[C@H]1OC(=O)C[C@H](O)CC[C@@](C)(OC(C)=O)[C@@H](OC(=O)N2CCNCC2)/C=C/[C@@H]1C [D9] | – | – | – | −99.938% | – | 1.15 ×10⁻⁶ cm/s | 16.1 ×10⁻⁶ cm/s | < 24 h | – | – | – | – | – | – | IC50 [12]: 2.18 nM
4 | CC(=O)N1CCC(n2nnc3c(F)cc(/C=C(\C)[C@H]4OC(=O)C[C@H](O)CC[C@H](C)[C@@H](OC(=O)N5CCNCC5)/C=C/[C@@H]4C)cc32)CC1 [D14] | 2.92 nM | −52.662% | 5.29 nM | −99.209% | – | 0.06 ×10⁻⁶ cm/s | 12.1 ×10⁻⁶ cm/s | > 168 h | – | – | 3.88 nM | −79.835% | – | 3.584 nM | GI50 ([7]; MOLP-8, unconjugated payload of the ADC): 1.9 nM; Payload LD50 [7, 19]: 8.5 nM; Payload Rmin (%) [7, 19]: −61%
5 | CC(=O)N1CCC(n2nnc3c(F)cc(/C=C(\C)[C@H]4OC(=O)C[C@H](O)CC[C@H](C)[C@@H](OC(=O)N5CCN(C)CC5)/C=C/[C@@H]4C)cc32)CC1 [D15] | 0.41 nM | −68.045% | 0.961 nM | −99.595% | 3.4 ×10⁻⁶ cm/s | 3.43 ×10⁻⁶ cm/s | 26.9 ×10⁻⁶ cm/s | > 168 h | 7 | 0.776 nM | 3.88 nM | −79.835% | 0.358 nM | – | Payload LD50 [1]: >200 nM; Payload LD50 [11, 20]: 2.037 nM; Payload Rmin (%) [11, 20]: −84.412%
6 | C/C(=C\c1cc(F)cc(N2CCOCC2)c1)[C@H]1OC(=O)C[C@H](O)CC[C@H](C)[C@@H](OC(=O)N2CCN(C)CC2)/C=C/[C@@H]1C [D17] | – | – | – | −99.033% | 20 ×10⁻⁶ cm/s | 20.2 ×10⁻⁶ cm/s | 18.2 ×10⁻⁶ cm/s | – | 7 | – | – | – | – | – | IC50 ([12]; unconjugated payload, [3H]-pladienolide B probe displacement, read-out: SPA-AT S GMean IC50 (nM) SF381 (WT) HELA.2): 1.82 nM
7 | CC[C@H](O)[C@@H](C)[C@H]1O[C@@H]1C[C@H](C)/C=C/C=C(\C)[C@H]1OC(=O)C[C@H](O)CC[C@@](C)(OC)[C@@H](OC(=O)N2CCNCC2)/C=C/[C@@H]1C [D18, (2S,3S,6S,7R,10R,E)-10-hydroxy-2-((S,2E,4E)-7-((2R,3R)-3-((2R,3S)-3-hydroxypentan-2-yl)oxiran-2-yl)-6-methylhepta-2,4-dien-2-yl)-7-methoxy-3,7-dimethyl-12-oxooxacyclododec-4-en-6-yl piperazine-1-carboxylate] | 0.275 nM | −92.127% | 0.883 nM | −99.621% | – | 1.19 ×10⁻⁶ cm/s | 27.4 ×10⁻⁶ cm/s | – | – | – | – | – | 0.208 nM | 0.863 nM | –
8 | CC[C@H](O)[C@@H](C)[C@H]1O[C@@H]1C[C@@](C)(O)/C=C/C=C(\C)[C@H]1OC(=O)C[C@H](O)CC[C@@](C)(OC)[C@@H](OC(=O)N2CCN(CCCC(=O)O)CC2)/C=C/[C@@H]1C [D25] | > 200 nM | 40.364% | > 200 nM | −77.246% | 0.14 ×10⁻⁶ cm/s | 0.137 ×10⁻⁶ cm/s | 0.349 ×10⁻⁶ cm/s | 120 h | 3.4 | 150 nM | > 400 nM | 77.524% | 168 nM | 348.114 nM | payload permeability (in words) [5]: poorly permeable; Payload LD50 [7, 19]: >400 nM; Payload LD50 ([8]; free payload of the ADC): >400 nM
